Experimental data published in patent US11236106B2, “Cycloalkane-1,3-diamine derivative” (Daiichi Sankyo Company, Limited, priority 2018, dated 2022).
Where a name gives a salt, the structure may show the parent alone.

Target: T1, menin and MLL (menin, Flag tagged; biotinylated MLL1 peptide 1-46aa) (Homo sapiens, UniProt O00255)
T1 sequence (O00255 1-610): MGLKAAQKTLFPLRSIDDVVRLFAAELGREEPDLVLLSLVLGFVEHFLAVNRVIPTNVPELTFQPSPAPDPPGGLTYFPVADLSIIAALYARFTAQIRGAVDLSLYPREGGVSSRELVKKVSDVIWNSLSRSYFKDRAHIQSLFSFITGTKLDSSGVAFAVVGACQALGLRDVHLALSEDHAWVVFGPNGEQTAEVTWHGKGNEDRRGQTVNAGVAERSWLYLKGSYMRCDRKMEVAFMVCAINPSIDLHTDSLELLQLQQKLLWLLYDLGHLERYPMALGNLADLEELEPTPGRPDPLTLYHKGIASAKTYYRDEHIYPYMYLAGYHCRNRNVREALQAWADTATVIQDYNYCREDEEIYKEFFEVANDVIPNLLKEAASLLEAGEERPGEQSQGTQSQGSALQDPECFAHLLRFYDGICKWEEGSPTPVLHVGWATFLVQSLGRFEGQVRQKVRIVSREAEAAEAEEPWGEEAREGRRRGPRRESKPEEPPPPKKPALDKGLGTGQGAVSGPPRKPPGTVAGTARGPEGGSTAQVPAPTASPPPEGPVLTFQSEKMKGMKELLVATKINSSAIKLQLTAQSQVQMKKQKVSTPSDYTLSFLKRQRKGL
Assay: biochemical
Settings: not given

In the case of `CCOc1cc(-c2ccc(CN[C@H]3C[C@@H](O)[C@@H](N(C)c4ncnc5sc(CC(F)(F)F)cc45)C3)cc2)cnc1OC` [Example 80, (1R,2S,4R)-4-({[4-(5-ethoxy-6-methoxypyridin-3-yl)phenyl]methyl}amino)-2-{methyl[6-(2,2,2-trifluoroethyl)thieno[2,3-d]pyrimidin-4-yl]amino}cyclopentan-1-ol hydrochloride], the IC50 is reported as 15.4 nM.

Same assay, conditions: IC50, binding inhibitory activity between menin and MLL, AlphaLISA; 1 nM menin, 10 nM biotinylated MLL1 peptide

With `COc1cc(-c2ccc(CN[C@H]3C[C@@H](O)[C@@H](N(C)c4ncncc4Oc4ccc(F)cc4-c4ccccc4C(C)C)C3)cc2)nnc1OC` [Example 101, (1R,2S,4R)-4-({[4-(5,6-dimethoxypyridazin-3-yl)phenyl]methyl}amino)-2-[(5-{[5-fluoro-2′-(propan-2-yl)[1,1′-biphenyl]-2-yl]oxy}pyrimidin-4-yl)(methyl)amino]cyclopentan-1-ol hydrochloride] the IC50 was 2.7 nM.

Same assay, conditions: cell free IC50 (nM), 1 nM menin, 10 nM biotinylated MLL1 peptide, AlphaLISA

First: CCN(c1ncnc2sc(CC(F)(F)F)cc12)[C@@H]1CC[C@H](NCc2ccc(-c3cccnc3)cc2)C1 [Example 43, (1R,3S)-N^1-ethyl-N^3-{[4-(pyridin-3-yl)phenyl]methyl}-N^1-[6-(2,2,2 trifluoroethyl)thieno[2,3-d]pyrimidin-4-yl]cyclopentane-1,3-diamine hydrochloride]
Second: CN(c1ncnc2sc(CC(F)(F)F)cc12)[C@@H]1CC[C@H](NCc2ccc(-c3cnc4ccoc4c3)cc2)C1 [Example 14, (1R,3S)—N^3-{[4-(furo[3,2-b]pyridin-6-yl)phenyl]methyl}-N^1-methyl-N^1-[6-(2,2,2-trifluoroethyl)thieno[2,3-d]pyrimidin-4-yl]cyclopentane-1,3-diamine Hydrochloride]
The IC50 of the first is 2.8-fold higher: 76.2 nM for the first, 27.4 nM for the second.

Going from `CN(c1ncnc2sc(CC(F)(F)F)cc12)[C@@H]1CC[C@H](NCc2cnn(-c3ccccc3)c2)C1` [Example 32, (1R,3S)-N^1-methyl-N^3-[(1-phenyl-1H-pyrazol-4-yl)methyl]-N^1-[6-(2,2,2-trifluoroethyl)thieno[2,3-d]pyrimidin-4-yl]cyclopentane-1,3-diamine hydrochloride] to `CN(c1ncnc2sc(CC(F)(F)F)cc12)[C@@H]1CC[C@H](NCc2ccc(NCc3ccccc3)cc2)C1` [Example 7, (1R,3S)—N^3-{[4-(benzylamino)phenyl]methyl}-N^1-methyl-N^1-[6-(2,2,2-trifluoroethyl)thieno[2,3-d]pyrimidin-4-yl]cyclopentane-1,3-diamine Hydrochloride], the IC50 rises from 94.9 nM to 151 nM (1.6-fold).

Going from `COc1cncc(-c2ccc(CN[C@H]3C[C@@H](Nc4ncnc5sc(CC(F)(F)F)cc45)C[C@@H](C(=O)N(C)C)C3)cc2)c1` (single isomer, unassigned) [Example 17A, Hydrochloride] to `COCc1cc2c(N(C)[C@@H]3CC[C@H](NCc4ccc(-c5cncc(OC)c5)cc4)C3)ncnc2s1` [Example 47, (1R,3S)-N^1-[6-(methoxymethyl)thieno[2,3-d]pyrimidin-4-yl]-N^3-{[4-(5-methoxypyridin-3-yl)phenyl]methyl}-N^1-methylcyclopentane-1,3-diamine hydrochloride], the IC50 falls from 2260 nM to 97.2 nM (23-fold). The second is the more potent here.

Going from `CN(c1ncnc2cc(CC(F)(F)F)sc12)[C@@H]1CC[C@H](NCc2ccc3[nH]c(C#N)cc3c2)C1` [Example 4, 5-({[(1S,3R)-3-{methyl[6-(2,2,2-trifluoroethyl)thieno[3,2-d]pyrimidin-4-yl]amino}cyclopentyl]amino}methyl)-1H-indole-2-carbonitrile] to `CN(c1ncnc2ccc(CC(F)(F)F)cc12)[C@@H]1CC[C@H](NCc2ccc(O)cc2)C1` [Example 5, 4-({[(1S,3R)-3-{methyl[6-(2,2,2-trifluoroethyl)quinazolin-4-yl]amino}cyclopentyl]amino}methyl)phenol Hydrochloride], the IC50 rises from 172 nM to 856 nM (5-fold). The first is the more potent here.

Molecule `C=CC(=O)NCCCNC(=O)c1ccc(CN[C@H]2CC[C@@H](N(C)c3ncnc4sc(CC(F)(F)F)cc34)C2)cc1` [Example 6, 4-({[(1S,3R)-3-{methyl[6-(2,2,2-trifluoroethyl)thieno[2,3-d]pyrimidin-4-yl]amino}cyclopentyl]amino}methyl)-N-{3-[(prop-2-enoyl)amino]propyl}benzamide Hydrochloride] has an IC50 of 81.9 nM.
